# In patent US20210127673A1, “HERBICIDES” (SYNGENTA PARTICIPATIONS AG, priority 2016, published 2021):
# What was measured:
# Format in all cases: in vivo
# Conditions in all cases: evaluated after 13 days
# [1] = tested on: Lolium perenne (LOLPE); test: Post-emergence herbicidal activity, Lolium perenne; parameters: key: 5=total damage to plant; 0=no damage to plant
# Method in brief: (§1)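 Scores (0 no damage to 5 total damage) read 13 d after spraying. Plants sprayed post-emergence 8 d after sowing; spray solution acetone/water 50:50 with 0.5% Tween 20. Growth at 24/16 °C day/night, 14 h light, 65% RH, twice-daily watering.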
# [2] = tested on: Echinochloa crus-galli (ECHCG); test: Post-emergence herbicidal activity, Echinochloa crus-galli; parameters: key: 5=total damage to plant; 0=no damage to plant
# Method in brief: as §1
# [3] = tested on: Echinochloa crus-galli (ECHCG); test: Pre-emergence herbicidal activity, Echinochloa crus-galli; parameters: key: 5=total damage to plant; 0=no damage to plant
# Method in brief: (§2)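 Seeds sown in standard soil in pots, grown one day in a glasshouse (24/16 °C day/night, 14 h light, 65% humidity), then sprayed pre-emergence with compound in acetone/water (50:50) containing 0.5% Tween 20. Plants were scored after 13 days on a 0–5 scale (5 = total damage, 0 = none).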
# [4] = tested on: Triticum aestivium (TRZAW); test: Post-emergence herbicidal activity, Triticum aestivium; parameters: key: 5=total damage to plant; 0=no damage to plant
# Method in brief: as §1
# [5] = tested on: Setaria faberi (SETFA); test: Pre-emergence herbicidal activity, Setaria faberi; parameters: key: 5=total damage to plant; 0=no damage to plant
# Method in brief: as §2
# [6] = tested on: Avena fatua (AVEFA); test: Post-emergence herbicidal activity, Avena fatua
# Method in brief: as §1
# [7] = tested on: Setaria faberi (SETFA); test: Post-emergence herbicidal activity, Setaria faberi; parameters: key: 5=total damage to plant; 0=no damage to plant
# Method in brief: as §1
# [8] = tested on: Avena fatua (AVEFA); test: Pre-emergence herbicidal activity, Avena fatua; parameters: key: 5=total damage to plant; 0=no damage to plant
# Method in brief: as §2
# [9] = tested on: Alopecurus myosuroides (ALOMY); test: Post-emergence herbicidal activity, Alopecurus myosuroides; parameters: key: 5=total damage to plant; 0=no damage to plant
# Method in brief: as §1
# [10] = tested on: Triticum aestivium (TRZAW); test: Pre-emergence herbicidal activity, Triticum aestivium; parameters: key: 5=total damage to plant; 0=no damage to plant
# Method in brief: as §2
# [11] = tested on: Alopecurus myosuroides (ALOMY); test: Pre-emergence herbicidal activity, Alopecurus myosuroides; parameters: key: 5=total damage to plant; 0=no damage to plant
# Method in brief: as §2
# [12] = tested on: Lolium perenne (LOLPE); test: Pre-emergence herbicidal activity, Lolium perenne; parameters: key: 5=total damage to plant; 0=no damage to plant
# Method in brief: as §2
Structure (SMILES),Control of LOLPE after post-emergence application (score 0-5) ([1]; 1000 g/ha),Control of ECHCG after post-emergence application (score 0-5) ([2]; 1000 g/ha),Control of ECHCG after pre-emergence application (score 0-5) ([3]; 1000 g/ha),Control of TRAZW after post-emergence application (score 0-5) ([4]; 1000 g/ha),Control of SETFA after pre-emergence application (score 0-5) ([5]; 1000 g/ha),Control of AVEFA after post-emergence application (score 0-5) ([6]; 1000 g/ha),Control of SETFA after post-emergence application (score 0-5) ([7]; 1000 g/ha),Control of AVEFA after pre-emergence application (score 0-5) ([8]; 1000 g/ha),Control of ALOMY after post-emergence application (score 0-5) ([9]; 1000 g/ha),Control of TRAZW after pre-emergence application (score 0-5) ([10]; 1000 g/ha),Control of ALOMY after pre-emergence application (score 0-5) ([11]; 1000 g/ha),Control of LOLPE after pre-emergence application (score 0-5) ([12]; 1000 g/ha),also measured
CC(C)(C)CNC(=O)Nc1ccc(-c2cncc(F)c2)nc1C(F)(F)F [Compound B107],,,,,,,,,,,,,Control of LOLPE after post-emergence application (score 0-5) ([1]; 250 g/ha): 1; Control of ECHCG after post-emergence application (score 0-5) ([2]; 250 g/ha): 3; Control of ECHCG after pre-emergence application (score 0-5) ([3]; 250 g/ha): 3; Control of TRAZW after post-emergence application (score 0-5) ([4]; 250 g/ha): 0; Control of SETFA after pre-emergence application (score 0-5) ([5]; 250 g/ha): 4; Control of AVEFA after post-emergence application (score 0-5) ([6]; 250 g/ha): 3; Control of SETFA after post-emergence application (score 0-5) ([7]; 250 g/ha): 5; Control of AVEFA after pre-emergence application (score 0-5) ([8]; 250 g/ha): 1; Control of ALOMY after post-emergence application (score 0-5) ([9]; 250 g/ha): 0; Control of TRAZW after pre-emergence application (score 0-5) ([10]; 250 g/ha): 1; Control of ALOMY after pre-emergence application (score 0-5) ([11]; 250 g/ha): 1; Control of LOLPE after pre-emergence application (score 0-5) ([12]; 250 g/ha): 3
O=C(Nc1ccc(-c2cncc(F)c2)nc1C(F)(F)F)OC1CCCCC1 [Compound B108],1,0,3,0,5,3,5,2,0,0,0,2,
COc1nc(-c2cncc(F)c2)ccc1N(C(=O)OC(C)(C)C)C(=O)OC(C)(C)C [Compound B109],0,1,0,0,3,1,1,1,0,0,0,0,
O=C(NOCC(F)F)Nc1ccc(-c2cncc(F)c2)nc1C(F)(F)F [Compound B110],1,3,3,0,4,3,4,0,0,0,0,0,
CON(C)C(=O)Nc1ccc(-c2cncc(F)c2)nc1C(F)(F)F [Compound B111],1,3,3,0,3,2,4,2,0,0,0,0,
"CC(C)(C)OC(=O)Nc1ccc(-c2cncc(F)c2)nc1-c1ccccc1 [Compound B112, tert-butyl N-[6-(5-fluoro-3-pyridyl)-2-phenyl-3-pyridyl]carbamate]",0,1,3,0,4,1,3,0,0,0,0,0,
CC(C)(C)OC(=O)N(C(=O)OC(C)(C)C)c1ccc(-c2cncc(F)c2)nc1C(F)(F)F [Compound B113],3,5,5,2,5,4,5,3,1,0,1,1,
CC(C)(C)OC(=O)N(C(=O)OC(C)(C)C)c1ccc(-c2cncc(F)c2)nc1C#N [Compound B114],3,5,5,1,5,4,5,1,0,0,0,1,
CC(C)OC(=O)Nc1ccc(-c2cncc(F)c2)nc1C#N [Compound B115],3,5,4,1,5,4,5,2,1,0,0,0,
"O=C(Nc1ccc(-c2cncc(F)c2)nc1C(F)(F)F)N1CCS(=O)(=O)C1 [Compound B116, N-[6-(5-fluoro-3-pyridyl)-2-(trifluoromethyl)-3-pyridyl]-1,1-dioxo-1,3-thiazolidine-3-carboxamide]",3,4,4,1,5,3,5,2,1,0,0,1,
"O=C(Nc1ccc(-c2cncc(F)c2)nc1C(F)(F)F)N1CC[S+]([O-])C1 (stereo not drawn) [Compound B117, N-[6-(5-fluoro-3-pyridyl)-2-(trifluoromethyl)-3-pyridyl]-1-oxo-1,3-thiazolidine-3-carboxamide]",4,5,4,3,5,4,5,3,1,0,0,1,
CC(C)(C#N)OC(=O)Nc1ccc(-c2cncc(F)c2)nc1C(F)(F)F [Compound B118],1,3,2,0,4,3,4,0,0,0,0,0,
